Source: publication PMC8398262, “New Sulfanilamide Derivatives Incorporating Heterocyclic Carboxamide Moieties as Carbonic Anhydrase Inhibitors” (Pharmaceuticals, 2021)

Assays:
hCA II = molecular target: T1, hCA II (Homo sapiens, UniProt P00918); experiment: stopped-flow CO2 hydrase assay, hCA II; type: biochemical; conditions: for Ki: stopped-flow CO2 hydrase assay, mean from 3 different assays, errors ±5–10%
T1 construct: made in house
Procedure: (§1) For each inhibitor, at least six traces of the initial 5–10% of the reaction were used for determining the initial velocity. The uncatalyzed rates were determined in the same manner and subtracted from the total observed rates. Stock solutions of the inhibitor (0.1 mM) were prepared in distilled–deionized water and dilutions up to 0.01 nM were done thereafter with the assay buffer. Inhibitor and enzyme solutions were preincubated together for 15 min at room temperature prior to the assay, allowing the formation of the E–I complex.

hCA IX = molecular target: T2, hCA IX (Homo sapiens, UniProt Q16790); experiment: stopped-flow CO2 hydrase assay, hCA IX; type: biochemical; conditions: mean from 3 different assays, errors ±5–10%
T2 construct: made in house
Procedure: as §1

hCA I = molecular target: T3, hCA I (Homo sapiens, UniProt P00915); experiment: stopped-flow CO2 hydrase assay, hCA I; type: biochemical; conditions: mean from 3 different assays, errors ±5–10%
T3 construct: made in house
T3 sequence (P00915 whole entry): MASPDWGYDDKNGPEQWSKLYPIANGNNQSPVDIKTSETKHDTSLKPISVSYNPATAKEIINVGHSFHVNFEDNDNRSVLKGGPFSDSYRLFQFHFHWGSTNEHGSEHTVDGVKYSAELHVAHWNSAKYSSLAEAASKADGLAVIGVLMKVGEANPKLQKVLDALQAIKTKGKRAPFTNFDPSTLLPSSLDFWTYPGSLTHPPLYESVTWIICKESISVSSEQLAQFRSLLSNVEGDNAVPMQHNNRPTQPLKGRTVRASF
Procedure: as §1

hCA XII = molecular target: T4, hCA XII (Homo sapiens, UniProt O43570); experiment: stopped-flow CO2 hydrase assay, hCA XII; type: biochemical; conditions: mean from 3 different assays, errors ±5–10%
T4 construct: made in house
T4 sequence (O43570 25-354): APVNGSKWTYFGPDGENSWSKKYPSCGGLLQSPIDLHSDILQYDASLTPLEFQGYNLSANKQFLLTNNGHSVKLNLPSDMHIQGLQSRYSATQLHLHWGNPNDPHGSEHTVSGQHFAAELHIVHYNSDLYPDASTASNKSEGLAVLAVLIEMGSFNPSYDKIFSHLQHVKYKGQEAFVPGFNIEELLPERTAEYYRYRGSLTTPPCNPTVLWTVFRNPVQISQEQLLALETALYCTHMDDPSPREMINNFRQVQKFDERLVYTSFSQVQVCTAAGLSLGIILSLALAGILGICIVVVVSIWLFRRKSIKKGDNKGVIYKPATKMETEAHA
Procedure: as §1

Row | SMILES | Ki (hCA II) | Ki (hCA IX) | Ki (hCA I) | Ki (hCA XII) | melting point | selectivity index (SI) towards hCA I (hCA II; selectivity for hCA II over hCA I) | selectivity index (SI) compared to hCA IX (hCA II; selectivity for hCA II over hCA IX) | selectivity index (SI) to hCA XII (hCA II; selectivity for hCA II over hCA XII)
1 | NS(=O)(=O)c1ccc(NC(=O)c2cc3sccc3n2Cc2ccc(Cl)cc2)cc1 [Compound 8f, N-[4-(aminosulfonyl)phenyl]-4-(4-chlorobenzyl)-4H-thieno[3,2-b]pyrrole-5-carboxamide] | 68.1 nM | 81.4 nM | 699 nM | 8.9 nM | 219 to 220 °C | – | – | –
2 | Cn1c(C(=O)Nc2ccc(S(N)(=O)=O)cc2)cc2sccc21 [Compound 8a, N-[4-(aminosulfonyl)phenyl]-4-methyl-4H-thieno[3,2-b]pyrrole-5-carboxamide] | 8.8 nM | 66.6 nM | 665 nM | 30.7 nM | 276 to 278 °C | 75.5 | 7.6 | 3.5
3 | NS(=O)(=O)c1ccc(NC(=O)c2cc3occc3n2Cc2ccccc2Cl)cc1 [Compound 7e, N-[4-(aminosulfonyl)phenyl]-4-(2-chlorobenzyl)-4H-furo[3,2-b]pyrrole-5-carboxamide] | 23.8 nM | 239 nM | 858 nM | 19.6 nM | 239 to 241 °C | – | – | –
4 | NS(=O)(=O)c1ccc(NC(=O)c2cc3occc3n2Cc2ccc(Cl)cc2)cc1 [Compound 7f, N-[4-(aminosulfonyl)phenyl]-4-(4-chlorobenzyl)-4H-furo[3,2-b]pyrrole-5-carboxamide] | 34.3 nM | 187 nM | 878 nM | 37.2 nM | 237 to 238 °C | – | – | –
5 | NS(=O)(=O)c1ccc(NC(=O)c2cc3occc3n2Cc2ccccc2F)cc1 [Compound 7d, N-[4-(aminosulfonyl)phenyl]-4-(2-fluorobenzyl)-4H-furo[3,2-b]pyrrole-5-carboxamide] | – | – | – | – | 240 to 242 °C | – | – | –
6 | NS(=O)(=O)c1ccc(NC(=O)c2cc3sccc3n2Cc2ccccc2F)cc1 [Compound 8d, N-[4-(aminosulfonyl)phenyl]-4-(2-fluorobenzyl)-4H-thieno[3,2-b]pyrrole-5-carboxamide] | 8.7 nM | 171 nM | 656 nM | 8.2 nM | 235 to 237 °C | – | – | –
7 | NS(=O)(=O)c1ccc(NC(=O)c2cc3sccc3n2Cc2ccccc2)cc1 [Compound 8c, N-[4-(aminosulfonyl)phenyl]-4-benzyl-4H-thieno[3,2-b]pyrrole-5-carboxamide] | 8.9 nM | 140 nM | 400 nM | 7.8 nM | 255 to 256 °C | – | – | –
8 | CC1(C(=O)Nc2ccc(S(N)(=O)=O)cc2)Oc2ccccc2NC1=O (stereo not shown) [Compound 11, N-[4-(aminosulfonyl)phenyl]-2-methyl-3-oxo-3,4-dihydro-2H-1,4-benzoxazine-2-carboxamide] | 6.5 nM | 260 nM | 70.6 nM | 5.3 nM | 269 to 270 °C | – | – | –
9 | Cn1c(C(=O)Nc2ccc(S(N)(=O)=O)cc2)cc2occc21 [Compound 7a, N-[4-(aminosulfonyl)phenyl]-4-methyl-4H-furo[3,2-b]pyrrole-5-carboxamide] | 8.4 nM | 103 nM | 718 nM | 6.9 nM | 273 to 275 °C | – | – | –
10 | NS(=O)(=O)c1ccc(NC(=O)c2cc3occc3n2Cc2ccccc2)cc1 [Compound 7c, N-[4-(aminosulfonyl)phenyl]-4-benzyl-4H-furo[3,2-b]pyrrole-5-carboxamide] | 37.5 nM | 276 nM | 3560 nM | 4.6 nM | 240 to 241 °C | – | – | –
11 | CCn1c(C(=O)Nc2ccc(S(N)(=O)=O)cc2)cc2sccc21 [Compound 8b, N-[4-(aminosulfonyl)phenyl]-4-ethyl-4H-thieno[3,2-b]pyrrole-5-carboxamide] | 6.8 nM | 251 nM | 270 nM | 5.1 nM | 248 to 249 °C | – | – | –

More lines, now with the values ahead:

Row | Ki (hCA II) | Ki (hCA IX) | Ki (hCA I) | Ki (hCA XII) | melting point | selectivity index (SI) towards hCA I (hCA II; selectivity for hCA II over hCA I) | selectivity index (SI) compared to hCA IX (hCA II; selectivity for hCA II over hCA IX) | selectivity index (SI) to hCA XII (hCA II; selectivity for hCA II over hCA XII) | SMILES
12 | 44.7 nM | 320 nM | 2920 nM | 7.6 nM | 312 to 315 °C | – | – | – | NS(=O)(=O)c1ccc(-c2ccc(/C=c3\sc4nc(-c5cccc(Cl)c5)nn4c3=O)o2)cc1 [Compound 17a, 4-(5-{(Z)-[2-(3-chlorophenyl)-6-oxo[1,3]thiazolo[3,2-b][1,2,4]triazol-5(6H)-ylidene]methyl}-2-furyl)enzenesulfonamide]
13 | 7.4 nM | 155 nM | 71.2 nM | 6.6 nM | 208 to 209 °C | – | – | – | NS(=O)(=O)c1ccc(CCNC(=O)C2=C(c3ccccc3)SCCO2)cc1 [Compound 14b, N-{2-[4-(aminosulfonyl)phenyl]ethyl}-3-phenyl-5,6-dihydro-1,4-oxathiine-2-carboxamide]
14 | 59.4 nM | 253 nM | 918 nM | 40.2 nM | 294 to 295 °C | – | – | – | COc1ccc(-c2nc3s/c(=C\c4ccc(-c5ccc(S(N)(=O)=O)cc5)o4)c(=O)n3n2)cc1OC [Compound 17b, 4-(5-{(Z)-[2-(3,4-Dimethoxyphenyl)-6-oxo[1,3]thiazolo[3,2 b][1,2,4]triazol-5(6H)-ylidene]methyl} -2-furyl)benzenesulfonamide]
15 | 6.7 nM | 281 nM | 56.5 nM | 6.1 nM | – | – | – | – | NS(=O)(=O)c1ccc(NC(=O)C2=C(c3ccccc3)SCCO2)cc1 [Compound 14a, N-[4-(aminosulfonyl)phenyl]-3-phenyl-5,6-dihydro-1,4-oxathiine-2-carboxamide]
